What was measured:
[1] = measurement of GL metabolites in human serum and urine samples (LC-MS/MS); type: in vivo
Protocol: Measurement of Compound 4 in Human Serum Samples
Human serum samples (100 µl) were pre-treated as described in the protocol reported in our previous study ([Takahashi et al., 2019]), and the concentration of 4 was measured using LC-tandem mass spectrometry (MS/MS) as described below. This study was conducted with the approval of the appropriate ethics committee at Keio University, Chiba University, Kanazawa University, and Kameda Medical Center.
Briefly, after diluting serum and urine samples with water to obtain suitable concentrations, they were digested with subtilisin (0.91 U/ml), followed by the addition of astragaloside IV (used as an internal standard; Fujifilm Wako Pure Chemicals, Osaka, Japan), and deproteinized using 80% ethanol. […] The transitions (precursor to daughter) monitored and retention times were as follows: ESI(+), 743.4 to 567.5 m/z (35 and 25 V for cone voltage and collision energy, respectively) for compound 1 (8.1 min); ESI(–), 565.5 to 96.5 m/z (80 and 60 V) for 2 (9.6 min); ESI(–), 549.5 to 96.5 m/z (80 and 60 V) for 3 (15.4 min); ESI(+), 727.3 to 551.2 m/z (30 and 25 V) for 4 (11.3 min); ESI(+), 647.6 to 453.6 m/z (40 and 20 V) for 3MGA (15.0 min); ESI(+), 471.3 to 91.0 m/z (40 and 20 V) for GA (13.4 min); ESI(+), 823.5 to 453.6 m/z (30 and 20 V) for GL (18.4 min); and ESI(+), 785.4 to 143.0 m/z (30 and 20 V) for astragaloside IV (3.0 min). Linear regressions over the concentration range of 2 nM to 2 µM for each compound were examined using the peak-area ratio of the compounds to their internal standards and the least-squares method (r ^ 2 > 0.98). The detection limits for 1, GL, and GA were 6.4 nM, and those for 2, 3, and 4, and 3MGA were 3.2 nM.

human OAT1 = target: T1, human OAT1 (Homo sapiens, UniProt Q4U2R8); assay: uptake into HEK293 cells transfected with OAT1; type: in vitro ADME; settings: HEK293, EHBR plasma, 37°C, 15 min
T1 construct: expressed in transfected cells; host or cells: HEK293 cells, pCI-neo vector
T1 sequence (Q4U2R8 1-563): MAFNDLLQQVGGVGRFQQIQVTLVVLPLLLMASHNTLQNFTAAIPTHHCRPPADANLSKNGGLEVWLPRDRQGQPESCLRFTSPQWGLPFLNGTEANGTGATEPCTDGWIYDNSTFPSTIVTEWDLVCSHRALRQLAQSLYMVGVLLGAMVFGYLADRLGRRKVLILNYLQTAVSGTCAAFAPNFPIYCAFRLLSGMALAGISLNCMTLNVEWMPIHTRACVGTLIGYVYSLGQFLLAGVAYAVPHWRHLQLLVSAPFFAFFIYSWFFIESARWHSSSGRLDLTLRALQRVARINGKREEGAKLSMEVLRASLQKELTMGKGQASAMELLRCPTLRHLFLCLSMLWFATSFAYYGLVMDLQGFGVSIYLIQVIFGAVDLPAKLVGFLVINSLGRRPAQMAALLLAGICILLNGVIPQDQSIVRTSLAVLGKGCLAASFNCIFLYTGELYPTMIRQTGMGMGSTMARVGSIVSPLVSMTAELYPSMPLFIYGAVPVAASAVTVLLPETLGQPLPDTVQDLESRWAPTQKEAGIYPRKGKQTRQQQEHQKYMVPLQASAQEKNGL
Excerpt: (§1) Uptake of Compound 4 by Rat Kidney Slices and Cells Expressing OAT1 and 3
(§2) For the uptake study of 4 into rat kidney slices, we used the samples obtained in our previous study ([Ishiuchi et al., 2019]). For the uptake study of 4 into the cells transiently expressing OAT1 and OAT3, we used the same protocol as in our previous study ([Makino et al., 2012]). cDNAs encoding human OAT1 and OAT3 inserted into pGH19 were generously supplied by Prof. Mitsuru Sugawara (Hokkaido University, Sapporo, Japan), and then subcloned into a pCI-neo mammalian expression vector (Promega, Madison, WI, United States). We used the same pooled plasma of male EHBRs orally treated with GA for 12 h used in our previous study ([Ishiuchi et al., 2019]).
(§3) FIGURE 2 Inhibitory effects of compound 4 on type-2 11β-hydroxysteroid dehydrogenase (11β-HSD2) using rat kidney microsome (A), and the uptake of 4 into rat kidney slices (B) or into HEK293 cells transfected with organic anion transporter (OAT) 1 (C) or OAT3 (D). […] Then, the amount of [^3H] cortisol was measured. […] Concentrations of 4 in kidney slice homogenates were measured using liquid chromatography-tandem mass spectrometry (LC-MS/MS). **p < 0.01 vs 4°C group using Student’s t-test (C) Male EHBRs were orally treated with GA (200 mg/kg) and their plasma samples were collected […] after treatment. […] Then, concentrations of 4 in cells were measured using LC-MS/MS. […]

rat kidney slices = assay: uptake into rat kidney slices; type: in vitro ADME, Sprague-Dawley (SD) rats; settings: SD rat kidney slices incubated with pooled EHBR plasma for 2 h; p < 0.01
Excerpt: as §1, §2, §3

serum concentration of 4 relative to that of 3 (fold lower) ([1]; human serum, patients with suspected pseudohyperaldosteronism): approximately 10 fold
concentration in urine ([1]; human, one urine sample among 20 available samples): 3 nM
number of serum samples in which compound was detected ([1]; of 70 participants taking liquorice-containing herbal preparations): 62 samples
uptake into cells expressing OAT1 vs mock cells (human OAT1): significantly higher
uptake by kidney slices, 37°C vs 4°C (rat kidney slices): significantly higher at 37 °C
SMILES: CC1(C)[C@@H](OS(=O)(=O)O)CC[C@]2(C)[C@H]3C(=O)C=C4[C@@H]5C[C@@](C)(C(=O)O[C@@H]6O[C@H](C(=O)O)[C@@H](O)[C@H](O)[C@H]6O)CC[C@]5(C)CC[C@@]4(C)[C@]3(C)CC[C@@H]12 [Compound 4, 18β-glycyrrhetyl-3-O-sulfate-30-O-glucuronide]

Source: PMC8165744, “Identification of an Alternative Glycyrrhizin Metabolite Causing Liquorice-Induced Pseudohyperaldosteronism and the Development of ELISA System to Detect the Predictive Biomarker” (Frontiers in Pharmacology, 2021)
